Experimental data taken from BigSolDB 2.1.

Cl.N=C(N)N
solubility (mole fraction)
Settings	278.15 K	283.15 K	288.15 K	293.15 K	298.15 K	303.15 K	308.15 K	313.15 K	318.15 K	323.15 K
in 2-butoxyethanol	0.104	0.111	0.126	0.138	0.153	0.169	0.185	0.201	0.216	0.236
in 2-ethoxyethanol	0.252	0.263	0.275	0.284	0.296	0.308	0.321	0.334	0.349	0.362
in 2-methoxyethanol	0.293	0.302	0.312	0.323	0.333	0.345	0.355	0.368	0.381	0.394
in 2-propoxyethanol	0.158	0.172	0.185	0.2	0.216	0.232	0.247	0.263	0.28	0.298
in DMAc	0.265	0.283	0.302	0.321	0.34	0.358	0.376	0.394	0.415	0.434
in DMF	0.326	0.345	0.368	0.384	0.402	0.42	0.441	0.456	0.476	0.495
in NMP	0.116	0.128	0.142	0.154	0.17	0.185	0.201	0.216	0.236	0.253
in ethanol	0.0832	0.0916	0.1	0.108	0.117	0.128	0.139	0.152	0.163	0.172
in isopropanol	0.0552	0.0623	0.0699	0.0803	0.0886	0.0991	0.11	0.122	0.135	0.149
in methanol	0.156	0.169	0.179	0.191	0.202	0.214	0.227	0.239	0.253	0.265
in n-propanol	0.0373	0.0447	0.0493	0.0571	0.066	0.0733	0.083	0.0939	0.103	0.115
